*1 amine or outer side, *2 acyl side, *3 side chain or, on linkers, in order; H or OH if unused. Where a SMILES comes first, the peptide text is derived from it. Side-chain parts run from the residue outwards. [ ]: non-standard residue; d: D form. The star is where a group is joined. γGlu = O=C(O)[C@H](CCC(=O)[*:2])N[*:1]; αMeF = C[C@](N)(Cc1ccccc1)C(=O)O; αMeK = C[C@](N)(CCCCN)C(=O)O; Lauroyl = CCCCCCCCCCCC(=O)*; αMeS = C[C@](N)(CO)C(=O)O; AEEA = NCCOCCOCC(=O)O; Aib = CC(C)(N)C(=O)O

A short description of data set [1]: Bioavailability after intraduodenal administration with permeation enhancers in rats. Format: in vivo, rat. The procedure:
Male Sprague Dawley rats (Charles River, Shrewsbury, MA, USA) weighing 250–275 g were housed with ad libitum access to standard chow and water. Test peptides were administered via either an intravenous or a duodenal catheter (4 rats per group) after overnight fasting, and food was returned following 4 h blood collection. Blood was collected via a jugular vein catheter at − 5, 15 and 30 min and 1, 2, 4, 8 and 24 h after intravenous dosing, or for intraduodenal groups at 15 min predose and 0.5, 1, 2, 4, 8, 24 and 48 h postdose. Blood was collected in K2EDTA tubes and kept on wet ice prior to 10 min centrifugation (3000 × g) at 5 °C ± 3 °C. Plasma samples were stored at − 70 °C until analysis.
Fifty or seventy μL aliquots of K2EDTA plasma samples were precipitated with 75% acetonitrile (Sigma-Aldrich) in water (J.T. Baker, Phillipsburg, NJ, USA) (v/v) and centrifuged at 2000 × g. The supernatant was dried under nitrogen at 60 °C, then cooled. Samples were reconstituted in 20% acetonitrile in water (v/v). […] Gradient separation was performed with water and 0.2% formic acid (Thermo Fisher Scientific, Waltham, MA, USA) as mobile phase A, and acetonitrile with 0.2% formic acid as mobile phase B. The method was qualified for the quantification range of 1–1000 ng/mL with accuracy and precision of ± 20%, except for at the lower limit of quantification when the accuracy and precision were ± 25%. Plasma concentrations were subject to noncompartmental analysis consistent with the route of administration using Phoenix WinNonlin (version 7.0, Certara, Princeton, NJ, USA).

Data set [2] has as its system monkey plasma protein. Kind of data set: EScalate equilibrium shift assay, monkey plasma. Type of data set: in vitro ADME. Particulars: EScalate equilibrium shift assay. On the procedure: [The procedure below names another species; the source lists this species under the same test.] (§1) Binding of peptides to human plasma proteins was determined by the EScalate equilibrium shift assay (Sovicell, Leipzig, Germany), using five dilutions of plasma in phosphate buffered saline and an assumed binding protein concentration of 600 µM. Samples were incubated for 1 h at room temperature then centrifuged to remove the HSA-coated beads. Supernatant samples were analyzed using HPLC (3 µm Phenomenex Aeris Widepore XB-C18 stationary phase) coupled to an electrospray ionization quadrupole time-of-flight mass spectrometer in high resolution accurate mass mode (Agilent, Santa Clara, CA, USA). Unbound fractions were calculated from the concentration-dependent shift in binding equilibrium according to fu=1/1+P/KDPlasma , where P is the concentration of the binding protein in plasma and KDPlasma is the dissociation constant of the compound from plasma proteins in solution.

A short description of data set [3]: EScalate equilibrium shift assay, monkey plasma. Type of data set: in vitro ADME. To be noted: monkey; EScalate equilibrium shift, five dilutions of plasma in PBS, 1 h at room temperature, HPLC-QTOF MS; read-out: Fraction unbound peptide (%), monkey. On the procedure:
[The procedure below names another species; the source lists this species under the same test.] as §1

For data set [4], the system named is diet-induced obese (DIO) mouse model. Nature of the data set: Body weight, blood glucose and plasma insulin in diet-induced obese mouse model. To be noted: DIO mice. Type of data set: in vivo. The procedure:
Male 20-week-old C57Bl/6 J mice were single-housed for approximately 14 weeks with ad libitum access to water and 60% high-fat diet (D12492, Research Diets). Mice were randomized into groups of 12 mice per group on baseline body weight, 6 h fasting glucose and 6 h fasting insulin. Over 21 days, mice received daily subcutaneous injections of 10 nmol/kg of test peptides or placebo (50 mM Tris–HCl, 150 mM mannitol, 0.02% polysorbate 80; pH 8.0). Body weight was measured daily and fasting glucose and insulin levels were measured on day 14 following a 6-h fast. Blood was collected via tail-snip and glucose was measured with an Ascensia Breeze 2 glucometer (Bayer, Mishawaka, IN, USA). Insulin was measured in plasma using a Meso Scale rat/insulin kit (Meso Scale Discovery, Rockville, MD, USA).

Data set [5] concerns the target T1, GLP-1R (endogenously expressed, EndoC-βH1 cells) (Homo sapiens, UniProt P43220).
T1 construct: EndoC-βH1 human pancreatic β-cell line, which endogenously expresses GLP-1R; endogenous in cells; host or cells: EndoC-βH1 human pancreatic β-cells
Kind of data set: cAMP accumulation assay in EndoC-βH1 human pancreatic β-cells. Particulars: geometric mean (SEM). Format: cell-based. The procedure:
All reagents for cAMP assays were obtained from Sigma-Aldrich unless otherwise specified.
Cells were suspended in assay buffer and combined with serially diluted peptides at room temperature for 30 min. cAMP levels were measured using a cAMP dynamic 2 HTRF kit (Cisbio, Codolet, France), following the manufacturer’s two-step protocol, on an EnVision plate reader (PerkinElmer, Waltham, MA, USA). […] The transformed data were analyzed by four-parameter logistic fit to determine EC50 values using GraphPad Prism 6 (GraphPad Software, San Diego, CA, USA).

[6] abbreviates: 10 nmol/kg daily subcutaneous, day 14, n = 12 per group.

T1 sequence (P43220 24-463): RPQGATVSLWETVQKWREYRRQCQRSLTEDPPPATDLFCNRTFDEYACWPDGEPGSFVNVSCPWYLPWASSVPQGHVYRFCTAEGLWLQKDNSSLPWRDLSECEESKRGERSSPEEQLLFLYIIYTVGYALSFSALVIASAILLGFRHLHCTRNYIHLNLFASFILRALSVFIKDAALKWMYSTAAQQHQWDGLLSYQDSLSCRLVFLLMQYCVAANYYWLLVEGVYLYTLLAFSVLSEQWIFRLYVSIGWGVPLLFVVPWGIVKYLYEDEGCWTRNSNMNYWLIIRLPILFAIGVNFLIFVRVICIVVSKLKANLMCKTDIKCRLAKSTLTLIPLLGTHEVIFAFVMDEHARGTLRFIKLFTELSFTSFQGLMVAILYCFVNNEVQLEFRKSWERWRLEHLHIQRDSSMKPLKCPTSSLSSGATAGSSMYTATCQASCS

With `CCCCCCCCCCCC(=O)N[C@@H](CCC(=O)NCCOCCOCC(=O)NCCOCCOCC(=O)NCCCC[C@H](NC(=O)[C@H](C)NC(=O)[C@@H](NC(=O)[C@](C)(Cc1ccccc1)NC(=O)[C@H](CCC(=O)O)NC(=O)[C@](C)(CCCCN)NC(=O)[C@H](C)NC(=O)[C@H](C)NC(=O)[C@H](CCC(=O)O)NC(=O)CNC(=O)[C@H](CCC(=O)O)NC(=O)[C@H](CC(C)C)NC(=O)[C@H](CCCCNC(=O)COCCOCCNC(=O)COCCOCCNC(=O)CC[C@H](NC(=O)CCCCCCCCCCC)C(=O)O)NC(=O)[C@H](CO)NC(=O)[C@](C)(CO)NC(=O)[C@@H](NC(=O)[C@H](CC(=O)O)NC(=O)[C@H](CO)NC(=O)[C@@H](NC(=O)[C@](C)(Cc1ccccc1)NC(=O)[C@H](CO)NC(=O)CNC(=O)[C@H](CCC(=O)O)NC(=O)C(C)(C)NC(=O)[C@@H](N)Cc1c[nH]cn1)[C@@H](C)O)C(C)C)[C@@H](C)CC)C(=O)N[C@H](C(=O)N[C@H](C(=O)N[C@@H](CCC(=O)O)C(=O)NCC(=O)NCC(N)=O)C(C)C)C(C)C)C(=O)O` [MEDI7219] (H-H[Aib]EGS[αMeF]TSDV[αMeS]SK([AEEA-AEEA-γGlu-Lauroyl])LEGEAA[αMeK]E[αMeF]IAK([AEEA-AEEA-γGlu-Lauroyl])VVEGG-NH2), in data set [1] (intraduodenal with permeation enhancers), the “fold higher mean bioavailability than semaglutide” value came out at 13 fold. Also, the “mean bioavailability (%F)” value in data set [1] (single intraduodenal administration with permeation enhancers (NaCDC and PG), n = 4 per group) amounted to 1.01%. For the same compound, the “peptide bound to plasma proteins, monkey” value in data set [2] is “over 97%”. The unbound share (fraction unbound) at 1 h in data set [3] was 0.025. In addition, the “Body weight change (%)” value in data set [4] (10 nmol/kg daily subcutaneous over 21 days, n = 12 per group, Fig. 3b) is recorded as −17.0%. The “body weight reduction after 21 days” value in data set [4] (10 nmol/kg daily subcutaneous, 21 days, n = 12 per group) turned out to be 17.0%. In addition, in data set [4] (setting [6]), the “6-h fasting blood glucose – day 14” value was found to be 133.0 mg/dL and the “6-h fasting plasma insulin – day 14” value came out at 0.74 ng/mL. Besides, the concentration giving a half-maximal response (EC50) in data set [5] (0.1% BSA, 30 min at room temperature, HTRF cAMP, n ≥ 3 independent experiments) was 1.36 nM. Further, in data set [5] (% activation, 80 nM native GLP-1 defines maximum effect), the “Human EndoC-βH1 cAMP 0.1% BSA Effect at max. concentration” value was 97.5 (7.1) %.

(Values after PMC8602401 (Scientific Reports, 2021).)
